GI50 and IC50 data for 32 compounds are collected here from patent US20250332173A1, “COMPOUNDS AND METHODS FOR MODULATING NUCLEIC ACID SPLICING” (REMIX THERAPEUTICS INC., priority 2021, published 2025).

In experiment [1] the test system is K562 (human chronic myelogenous leukemia) cells. The experiment is described as follows: Cell Titer Glo 2.0 cell viability assay. It is filed as cell-based. The note with it: Homo sapiens, K562, 72 h, K562 cells, 72 hours, Cell Titer Glo 2.0; read-out: K562 GI50.
In experiment [2] the test system is HTT. The experiment is described as follows: HiBiT protein abundance assay, HTT HiBiT K562 cell line. Type of experiment: cell-based, human. The note with it: HiBiT K562 cell line, 24 hours, top dose 10 μM; read-out: Effect on protein abundance, HTT (IC50 category). An outline of the steps:
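Endogenous targets in K562 knock-in lines carried a HiBiT tag and were treated for 24 h at 37 °C with 10-point 3-fold dilutions (top 10 μM final, DMSO ≤0.25%). Abundance was read as lytic Nano-Glo HiBiT luminescence. IC50 came from a four-parameter logistic fit of normalized response.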
In general terms: The HiBiT peptide binds its large partner to form an active luciferase.

Experiment [3] relates to SMN2 mRNA. The experiment is described as follows: RT-qPCR splicing assay, SMN2 canonical junction (CJ) mRNA. It is filed as cell-based, human. The following applies: Homo sapiens; Table 5 panel; canonical junction qPCR; compound concentration having 50% response in CJ decrease; read-out: SMN2 IC50 (decrease in CJ mRNA levels). A digest of the protocol: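 Canonical-junction transcript levels in compound-treated A673 or K562 cells (24 h, up to 10 uM final) were determined from lysates by RT-qPCR with housekeeping-gene normalization.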

For orientation: GI50 means the concentration that inhibits growth by half. A word on the IC50: it is the concentration that inhibits the measured activity by half.

Counter-ions that a name gives are not always drawn.

For `CCN1CCC(n2ncc3cc(-c4cc(C)c5nc(C)cn5n4)cc(F)c3c2=O)CC1` [Compound 537], the concentration for 50% growth inhibition (GI50) in experiment [1] fell in the range of 100 to 1000 nM. In addition, the IC50 in experiment [2] and in experiment [3] was less than 100 nM in each case.

As to `Cc1cn2nc(-c3cc(F)c4c(=O)n(C5CCN(CCF)CC5)ncc4c3)cc(C)c2n1` [Compound 538], the 50% growth inhibitory concentration (GI50) in experiment [1] fell in the range of 100 to 1000 nM. Further, the IC50 in experiment [2] and in experiment [3] was less than 100 nM in each case.

For the compound `Cc1cn2nc(-c3cc(F)c4c(=O)n(C5CCN(C)CC5)ncc4c3)cc(C)c2n1` [Compound 539], the GI50 in experiment [1] was 100 to 1000 nM. For the same compound, the IC50 in experiment [2] and in experiment [3] was less than 100 nM in each case.

Take `Cc1cn2nc(-c3cc(F)c4c(=O)n(C5CCNCC5)ncc4c3)cc(C)c2n1` [Compound 540]: the concentration for 50% growth inhibition (GI50) in experiment [1] is less than 100 nM. In addition, the concentration for half-maximal inhibition (IC50) in experiment [2] and in experiment [3] was less than 100 nM throughout.

Take `Cc1cn2nc(-c3cc(O)c4c(=O)n(C5CCNCC5)ncc4c3)cc(C)c2n1` [Compound 541]: the 50% growth inhibitory concentration (GI50) in experiment [1] is less than 100 nM. In addition, the 50% inhibitory concentration (IC50) in experiment [2] and in experiment [3] was less than 100 nM in each case.

As for `CCN1CCC(n2ncc3cc(-c4cc(C)c5nc(C)cn5n4)cc(O)c3c2=O)CC1` [Compound 542], in experiment [1], the 50% growth inhibitory concentration (GI50) lay within 100 to 1000 nM. Moreover, the IC50 in experiment [2] and in experiment [3] was less than 100 nM each time.

For the compound `Cc1cn2nc(-c3cc(O)c4c(=O)n(C5CCN(C)CC5)ncc4c3)cc(C)c2n1` [Compound 543], the GI50 in experiment [1] is 100 to 1000 nM. Also, the half-inhibitory concentration (IC50) in experiment [2] and in experiment [3] was less than 100 nM in each case.

For the compound `Cc1cn2nc(-c3ccc4c(=O)n(C5CCNCC5)ccc4c3)cc(Oc3ccccc3F)c2n1` [Compound 544, 6-[8-(2-fluorophenoxy)-2-methyl-imidazo[1,2-b]pyridazin-6-yl]-2-(4-piperidyl) isoquinolin-1-one; hydrochloride], the GI50 in experiment [1] was in the range of 100 to 1000 nM. For the same compound, the half-maximal inhibitory concentration (IC50) in experiment [2] and in experiment [3] was less than 100 nM in each case.

With `Cc1cn2nc(-c3ccc4c(=O)n(C5CCNCC5)ccc4c3)cc(Oc3cccc(F)c3)c2n1` [Compound 545, 6-[8-(3-fluorophenoxy)-2-methyl-imidazo[1,2-b]pyridazin-6-yl]-2-(4-piperidyl)isoquinolin-1-one; hydrochloride], the GI50 in experiment [1] is less than 100 nM. In addition, the IC50 in experiment [2] and in experiment [3] was less than 100 nM each time.

Take `Cc1cn2nc(-c3ccc4c(=O)n(C5CCNCC5)ccc4c3)cc(Oc3ccc(F)cc3)c2n1` [Compound 546, 6-[8-(4-fluorophenoxy)-2-methyl-imidazo[1,2-b]pyridazin-6-yl]-2-(4-piperidyl) isoquinolin-1-one; hydrochloride]: the concentration for 50% growth inhibition (GI50) in experiment [1] was less than 100 nM. The IC50 in experiment [2] and in experiment [3] was less than 100 nM throughout.

Turning to `COc1cccc(Oc2cc(-c3ccc4c(=O)n(C5CCNCC5)ccc4c3)nn3cc(C)nc23)c1` [Compound 547, 6-[8-(3-methoxyphenoxy)-2-methyl-imidazo[1,2-b]pyridazin-6-yl]-2-(4 piperidyl) isoquinolin-1-one], the GI50 in experiment [1] is less than 100 nM. The IC50 in experiment [2] and in experiment [3] was less than 100 nM in each case.

Turning to `Cc1cn2nc(-c3cc(F)c4c(=O)n(C5CCNCC5)ncc4c3)cc(Oc3ccccc3)c2n1` [Compound 548, 8-fluoro-6-(2-methyl-8-phenoxy-imidazo[1,2-b]pyridazin-6-yl)-2-(4-piperidyl)phthala-zin-1-one], the GI50 in experiment [1] was less than 100 nM. The 50% inhibitory concentration (IC50) in experiment [2] and in experiment [3] was less than 100 nM each time.

In the case of `Cc1cn2nc(-c3ccc4c(=O)n(C5CCNCC5)ncc4c3)cc(Oc3ccccc3)c2n1` [Compound 549, 6-(2-methyl-8-phenoxy-imidazo[1,2-b]pyridazin-6-yl)-2-(4-piperidyl) phthalazin-1-one], the GI50 in experiment [1] was 100 to 1000 nM. For the same compound, the IC50 in experiment [2] and in experiment [3] was less than 100 nM each time.

With `Cc1cn2nc(-c3ccc4c(=O)n(C5CCNCC5)ccc4c3)cc(Oc3cccnc3)c2n1` [Compound 550, 6-[2-methyl-8-(3-pyridyloxy)imidazo[1,2-b]pyridazin-6-yl]-2-(4-piperidyl)isoquinolin-1-one], in experiment [1], the GI50 is less than 100 nM. Besides, the half-inhibitory concentration (IC50) in experiment [2] and in experiment [3] was less than 100 nM each time.

Consider `Cc1cn2nc(-c3ccc4c(=O)n(C5CCNCC5)ccc4c3)cc(-n3ccc(=O)cc3)c2n1` [Compound 551, 6-[2-methyl-8-(4-oxo-1-pyridyl)imidazo[1,2-b]pyridazin-6-yl]-2-(4-piperidyl)isoquinolin-1-one], for which the GI50 in experiment [1] was 100 to 1000 nM. Besides, the IC50 in experiment [2] and in experiment [3] was 100 to 1000 nM each time.

As to `Cc1cn2nc(-c3ccc4c(=O)n(C5CCNCC5)ccc4c3)cc(-n3ccccc3=O)c2n1` [Compound 552, 6-[2-methyl-8-(2-oxo-1-pyridyl)imidazo[1,2-b]pyridazin-6-yl]-2-(4-piperidyl)isoquinolin-1-one], the GI50 in experiment [1] was more than 10000 nM. In addition, the concentration for half-maximal inhibition (IC50) in experiment [2] and in experiment [3] was more than 10000 nM each time.

Take `Cc1cn2nc(-c3cc(O)c4c(=O)n(C5CCN(CCF)CC5)ncc4c3)cc(C)c2n1` [Compound 553]: the GI50 in experiment [1] was 100 to 1000 nM. The IC50 in experiment [2] and in experiment [3] was less than 100 nM each time.

In the case of `Cc1cc(-c2cc(F)c3c(=O)n(C4CCNC5(CC5)C4)ncc3c2)cc2cn(C)nc12` (stereo not drawn) [Compound 554], the GI50 in experiment [1] lay in the range of 100 to 1000 nM. Also, the IC50 in experiment [2] and in experiment [3] was less than 100 nM in each case.

Take `Cc1nc2c(C)cc(-c3cc(F)c4c(=O)n(C5CCNC6(CC6)C5)ncc4c3)cc2o1` (stereo not drawn) [Compound 555]: the GI50 in experiment [1] is 100 to 1000 nM. The half-inhibitory concentration (IC50) in experiment [2] and in experiment [3] was less than 100 nM in each case.

As to `Cc1cn2cc(-c3cc(F)c4c(=O)n(C5CCNC6(CC6)C5)ncc4c3)cc(Cl)c2n1` (stereo not drawn) [Compound 556], the GI50 in experiment [1] was 100 to 1000 nM. Besides, the IC50 in experiment [2] and in experiment [3] was less than 100 nM in each case.

With `Cc1cn2cc(-c3cc(O)c4c(=O)n(C5CCNC6(CC6)C5)ncc4c3)cc(Cl)c2n1` (stereo not drawn) [Compound 557], the GI50 in experiment [1] was 100 to 1000 nM. Further, the IC50 in experiment [2] and in experiment [3] was less than 100 nM in each case.

Take `CCc1cn(C2CCNCC2)c(=O)c2c(F)cc(-c3cc(F)c4nc(C)cn4c3)cc12` [Compound 558, 4-ethyl-8-fluoro-6-{8-fluoro-2-methylimidazo[1,2-a]pyridin-6-yl}-2-(piperidin-4-yl)isoquinolin-1-one]: the GI50 in experiment [1] was 100 to 1000 nM. The IC50 in experiment [2] is 100 to 1000 nM; in experiment [3], less than 100 nM.

As to `C=Cc1cn(C2CCNCC2)c(=O)c2c(F)cc(-c3cc(F)c4nc(C)cn4c3)cc12` [Compound 559, 4-ethenyl-8-fluoro-6-{8-fluoro-2-methylimidazo[1,2-a]pyridin-6-yl}-2-(piperidin-4-yl)isoquinolin-1-one], the GI50 in experiment [1] is less than 100 nM. Further, the IC50 in experiment [2] and in experiment [3] was less than 100 nM throughout.

For the compound `Cc1cn2cc(-c3ccc4c(=O)n(C5CCNCC5)ccc4c3)cc(C#N)c2n1` [Compound 560, 2-methyl-6-[1-oxo-2-(piperidin-4-yl)isoquinolin-6-yl]imidazo[1,2-a]pyridine-8-carbonitrile], the GI50 in experiment [1] is 100 to 1000 nM. Further, the figures for the IC50 in experiment [2] and in experiment [3] were 100 to 1000 nM and less than 100 nM, respectively.

As to `Cc1cc(-c2cc(O)c3c(=O)n(C4CCNC5(CC5)C4)ncc3c2)cc2cn(C)nc12` (stereo not drawn) [Compound 561], the GI50 in experiment [1] lay within 1000 to 10000 nM. The IC50 in experiment [2] and in experiment [3] was 100 to 1000 nM each time.

`Cc1cn2nc(-c3cc4ncn(C5CCNCC5)c(=O)c4cc3F)cc(C)c2n1` [Compound 585, 7-{2,8-dimethylimidazo[1,2-b]pyridazin-6-yl}-6-fluoro-3-(piperidin-4-yl)quinazolin-4-one]: the GI50 in experiment [1] lay in the range of 1000 to 10000 nM. The IC50 was 1000 to 10000 nM in experiment [2] and 100 to 1000 nM in experiment [3].

In the case of `Cc1cn2cc(-c3cc4ncn(C5CCNCC5)c(=O)c4cc3F)cc(F)c2n1` [Compound 586, 6-fluoro-7-{8-fluoro-2-methylimidazo[1,2-a]pyridin-6-yl}-3-(piperidin-4-yl)quinazolin-4-one], the GI50 in experiment [1] lay in the range of 100 to 1000 nM. Moreover, the IC50 in experiment [2] is 100 to 1000 nM; in experiment [3], less than 100 nM.

Regarding `Cc1cn2cc(-c3cc(O)c4c(=O)n(C5CCNCC5)cnc4c3)cc(F)c2n1` [Compound 587, 7-{8-fluoro-2-methylimidazo[1,2-a]pyridin-6-yl}-5-hydroxy-3-(piperidin-4-yl)quinazolin-4-one], in experiment [1], the GI50 was 100 to 1000 nM. The figures for the IC50 in experiment [2] and in experiment [3] were 100 to 1000 nM and less than 100 nM, respectively.

In the case of `Cc1cn2cc(-c3cc(F)c4c(=O)n(C5CCNCC5)cnc4c3)cc(C#N)c2n1` [Compound 588], the GI50 in experiment [1] was 1000 to 10000 nM. For the same compound, the IC50 in experiment [2] was 1000 to 10000 nM; in experiment [3], less than 100 nM.

Turning to `Cc1cn2nc(-c3cc(F)c4c(=O)n(C5CCNC5)cnc4c3)cc(C)c2n1` (stereo not drawn) [Compound 589, 7-{2,8-dimethylimidazo[1,2-b]pyridazin-6-yl}-5-fluoro-3-(pyrrolidin-3-yl)quinazolin-4-one], in experiment [1], the 50% growth inhibitory concentration (GI50) was in the range of 1000 to 10000 nM. Also, the IC50 lay within 1000 to 10000 nM in experiment [2] and 100 to 1000 nM in experiment [3].

Turning to `Cc1cn2nc(-c3cc(F)c4c(=O)n([C@@H]5CCN(C)C6(CC6)C5)ncc4c3)cc(C)c2n1` [Compound 637], the GI50 in experiment [1] fell in the range of 100 to 1000 nM. The IC50 in experiment [2] and in experiment [3] was less than 100 nM each time.

In the case of `Cc1cn2nc(-c3cc(F)c4c(=O)n([C@H]5CCN(C)C6(CC6)C5)ncc4c3)cc(C)c2n1` [Compound 638], in experiment [1], the GI50 was in the range of 100 to 1000 nM. Also, the concentration for half-maximal inhibition (IC50) in experiment [2] and in experiment [3] was less than 100 nM in each case.
